Reference: patent US6562620B2, “Medium to promote islet cell survival” (McGill University, priority 1997, dated 2003)

What was measured:
erk1 and erk2 = erk1 and erk2 activation in isolated islets; assay type: cell-based; conditions: human islets; FIG. 6
Description: (§1) The former two pathways are known to be associated with the induction of the apoptotic program, while the latter may be protective.
Signalling through erk has been associated with cell differentiation and cell survival (FIG. 6).

islets = test: Cell death detection ELISA (DNA fragmentation) of cultured islets; assay type: cell-based, Syrian golden hamsters; conditions: 3 days serum then 9 days in 25% DCM or 34 ng/ml IGF-II; mean±SEM, n=6; FIG. 10
Protocol: Three experimental groups were designed for this study: Group 1 (control), with 100 islets per culture flask; Group 2 (islets plus ducts), with 100 islets plus 80 ducts per flask; and Group 3 (islets in 25% DCM), with 100 islets per flask.
All tissues were embedded in rat tail collagen and incubated in a humidified atmosphere of 95% air, 5% CO2 at 37° C. The baseline medium for all groups was DMEM/F12, supplemented with 10% NuSerum for three days at the start of the culture period, followed by 9 days of serum-free incubation. The medium was changed every other day.
After a 12 day incubation period, the media was removed and 3 ml of collagenase XI (0.25 mg/ml) was added to each flask for 40 min. The islets were hand-picked and washed three times in Hank's buffered salt solution (HBSS, Gibco, Montreal, Quebec, Canada). The presence of DNA fragmentation, a characteristic feature of apoptosis was determined using a cell death detection ELISA (Boehringer Mannheim, Laval, Quebec). The results were expressed as absorbance at 405 nm and corrected for total DNA content. DNA (μg) was measured by fluorometry using disbenzimidazole (Hoechst 33258, Sigma, Montreal, Quebec) as described (Labarca & Pagen, 1987, Analytical Biochemistry 102:44-52).
The islets were embedded in rat tail collagen and cultured in DMEM/F12 supplemented with 10% NuSerum. […]

p38 = p38 activation in canine islets (Western blot); assay type: cell-based; conditions: collagen 400 μg/ml
Description: as §1
Signaling through the p38 MAP kinase is one pathway whose downstream effectors have been implicated in […].
In addition to growth factors, evidence is provided for the beneficial effect of matrix molecules, e.g. fibronectin for human islets, and collagen for canine islets (FIGS. 4 and 5) The data for p38 activation and its modulation by collagen represents the effect of 200 μg/ml of collagen type 1. Not shown, is that collagen in a concentration of 400 μg/ml will decrease p38 activation by over 50%.

| Substance | effect on erk1 and erk2 activation (erk1 and erk2) | other results |
| --- | --- | --- |
| IGF-I: insulin-like growth factor-1 | positive effect | – |
| IGF-II: insulin-like growth factor II, growth factor added at 34 ng/ml | – | cell death ELISA (DNA fragmentation), IGF-II study (islets): 2.5 ± 1.0 |
| collagen | – | decrease of p38 activation (p38): over 50% |
| insulin | positive effect | – |
